Article PMC11035696, “Prospective de novo drug design with deep interactome learning” (Nature Communications, 2024)
“Also recorded” adds a separate entry of the source.

Columns and labels:
[1] = test system: cytochrome P450 isoenzymes (Cyp3A4, Cyp1A2, Cyp2B6, Cyp2C9, Cyp2D6, Cyp2C19, Cyp2C8); assay: CYP inhibition, summary over seven isoenzymes; type: in vitro ADME; conditions: dose-response experiments up to 20 μM, result in words
Experimental: SI11Absorption Distribution Metabolism and Excretion and Toxicity Data
To assess the drug-like characteristics of the newly designed PPAR modulators, a series of tests were conducted covering various aspects of absorption, distribution, metabolism, and excretion (ADME) properties. Specifically, these assessments included the parallel artificial membrane permeability assay (PAMPA) with permeation co- […]
efficients ([…]), LogD measurements, microsomal clearance, hepatocyte clearance, P-glycoprotein (Pgp) efflux ratio and binding and the unbound free fraction. Furthermore, the evaluation of inhibition po-tential against cytochrome P450 isoenzymes (CYP) proteins was investigated. For seven selected CYP proteins (i.e., Cyp3A4, Cyp1A2, Cyp2B6, Cyp2C9, Cyp2D6, Cyp2C19, and Cyp2C8) the half maximal inhibitory con-centration (IC50) was determined. (Table S15). […]
activity in the CYP assays was found.
Table S14: Absorption distribution metabolism and excretion (ADME) properties of compounds 1 and 2. […]
The values for microsomal clearance and CYP-inhibition represent single point measurements. […]
Molecule Enzyme Substrate IC50 (µM) […]

[2] = target: 5HT1A (Homo sapiens, UniProt P08908); assay: Safety off-target panel, binding; conditions: single point
Source text: (§1) Table S9-S12 list all targets, their species, inhibition (%) and assay type for the experiments conducted in the
(§2) off-targets. […] The numbers for mean
(§3) inhibition (%) represent single point measurements.
(§4) off-targets. […] The numbers for
(§5) mean inhibition (%) represent single point measurements.

[3] = target: 5HT2A (Homo sapiens, UniProt P28223); assay: Safety off-target panel, binding; conditions: single point
Source text: as §1, §2, §3, §4, §5

[4] = target: 5HT3 (Homo sapiens, UniProt P46098); assay: Safety off-target panel, binding; conditions: single point
Source text: as §1, §2, §3, §4, §5

[5] = target: ADENOSINE A1 RECEPTOR (Homo sapiens, UniProt P30542); assay: Safety off-target panel, binding; conditions: single point
Source text: as §1, §2, §3, §4, §5

[6] = target: ADENOSINE A3 RECEPTOR (Homo sapiens, UniProt P0DMS8); assay: Safety off-target panel, binding; conditions: single point
Source text: as §1, §2, §3, §4, §5

[7] = target: CANNABINOID RECEPTOR CB1 (Homo sapiens, UniProt P21554); assay: Safety off-target panel, binding; conditions: single point
Source text: as §1, §2, §3, §4, §5

[8] = target: DOPAMINE D1 RECEPTOR (Homo sapiens, UniProt P21728); assay: Safety off-target panel, binding; conditions: single point
Source text: as §1, §2, §3, §4, §5

[9] = target: ESTROGEN RECEPTOR α (Homo sapiens, UniProt P03372); assay: Safety off-target panel, binding; conditions: single point
Source text: as §1, §2, §3, §4, §5

[10] = target: GLUCOCORTICOID RECEPTOR (Homo sapiens, UniProt P04150); assay: Safety off-target panel, binding; conditions: single point
Source text: as §1, §2, §3, §4, §5

[11] = target: GLYCINE RECEPTOR, STRYCHNINE INSENSITIVE (Rattus norvegicus, UniProt P35439); assay: Safety off-target panel, binding; conditions: read-out: Mean inhibition (%)
Source text: as §1, §2, §3, §4, §5

[12] = target: HISTAMINE H1 RECEPTOR (Homo sapiens, UniProt P35367); assay: Safety off-target panel, binding; conditions: single point
Source text: as §1, §2, §3, §4, §5

[13] = target: HISTAMINE H2 RECEPTOR (Homo sapiens, UniProt P25021); assay: Safety off-target panel, binding; conditions: single point
Source text: as §1, §2, §3, §4, §5

[14] = target: HISTAMINE H3 RECEPTOR (Homo sapiens, UniProt Q9Y5N1); assay: Safety off-target panel, binding; conditions: single point
Source text: as §1, §2, §3, §4, §5

[15] = target: MUSCARINIC RECEPTOR M1 (Homo sapiens, UniProt P11229); assay: Safety off-target panel, binding; conditions: single point
Source text: as §1, §2, §3, §4, §5

[16] = target: MUSCARINIC RECEPTOR M2 (Homo sapiens, UniProt P08172); assay: Safety off-target panel, binding; conditions: single point
Source text: as §1, §2, §3, §4, §5

[17] = target: NICOTINIC RECEPTOR, MUSCLE (Homo sapiens, UniProt P02708+P07510+P11230+Q07001); assay: Safety off-target panel, binding; conditions: single point
Source text: as §1, §2, §3, §4, §5

[18] = target: NOREPINEPHRINE TRANSPORTER (Homo sapiens, UniProt P23975); assay: Safety off-target panel, binding; conditions: single point
Source text: as §1, §2, §3, §4, §5

[19] = target: PPARγ (Homo sapiens, UniProt P37231); assay: Safety off-target panel, binding; conditions: single point
Source text: as §1, §2, §3, §4, §5

[20] = target: PROSTAGLANDIN F RECEPTOR (Homo sapiens, UniProt P43088); assay: Safety off-target panel, binding; conditions: single point
Source text: as §1, §2, §3, §4, §5

[21] = target: SEROTONIN TRANSPORTER (Homo sapiens, UniProt P31645); assay: Safety off-target panel, binding; conditions: single point
Source text: as §1, §2, §3, §4, §5

[22] = target: alpha1A-ADRENOCEPTOR (Homo sapiens, UniProt P35348); assay: Safety off-target panel, binding; conditions: single point
Source text: as §1, §2, §3, §4, §5

[23] = target: µ OPIOID RECEPTOR (Homo sapiens, UniProt P35372); assay: Safety off-target panel, binding; conditions: single point
Source text: as §1, §2, §3, §4, §5

[24] = target: α2A-ADRENOCEPTOR (Homo sapiens, UniProt P08913); assay: Safety off-target panel, binding; conditions: single point
Source text: as §1, §2, §3, §4, §5

[25] = target: β2-ADRENOCEPTOR (Homo sapiens, UniProt P07550); assay: Safety off-target panel, binding; conditions: single point
Source text: as §1, §2, §3, §4, §5

[26] = target: κ OPIOID RECEPTOR (Homo sapiens, UniProt P41145); assay: Safety off-target panel, binding; conditions: single point
Source text: as §1, §2, §3, §4, §5

Chain of ADENOSINE A1 RECEPTOR (P30542 whole entry): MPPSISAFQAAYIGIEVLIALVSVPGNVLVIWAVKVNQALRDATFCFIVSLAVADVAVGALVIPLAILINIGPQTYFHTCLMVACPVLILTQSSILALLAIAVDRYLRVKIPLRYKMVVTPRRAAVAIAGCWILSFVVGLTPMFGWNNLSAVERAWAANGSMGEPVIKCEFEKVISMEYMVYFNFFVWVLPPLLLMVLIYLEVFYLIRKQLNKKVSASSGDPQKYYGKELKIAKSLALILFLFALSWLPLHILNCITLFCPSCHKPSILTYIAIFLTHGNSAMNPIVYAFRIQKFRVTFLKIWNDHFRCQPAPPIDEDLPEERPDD
Chain of MUSCARINIC RECEPTOR M1 (P11229 whole entry): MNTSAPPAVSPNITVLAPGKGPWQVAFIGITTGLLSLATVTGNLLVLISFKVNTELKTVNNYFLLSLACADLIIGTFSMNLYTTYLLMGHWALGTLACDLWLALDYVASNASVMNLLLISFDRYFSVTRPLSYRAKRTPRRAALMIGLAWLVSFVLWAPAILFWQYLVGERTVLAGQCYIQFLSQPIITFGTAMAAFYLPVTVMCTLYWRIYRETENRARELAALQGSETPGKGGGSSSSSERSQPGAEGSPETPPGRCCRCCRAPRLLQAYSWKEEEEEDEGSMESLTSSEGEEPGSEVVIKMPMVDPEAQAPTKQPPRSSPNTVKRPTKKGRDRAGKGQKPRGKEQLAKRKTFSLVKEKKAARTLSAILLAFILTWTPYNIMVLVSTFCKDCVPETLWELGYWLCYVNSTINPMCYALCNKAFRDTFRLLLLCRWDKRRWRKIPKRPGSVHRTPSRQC
Chain of UniProt P35348 (P35348 whole entry): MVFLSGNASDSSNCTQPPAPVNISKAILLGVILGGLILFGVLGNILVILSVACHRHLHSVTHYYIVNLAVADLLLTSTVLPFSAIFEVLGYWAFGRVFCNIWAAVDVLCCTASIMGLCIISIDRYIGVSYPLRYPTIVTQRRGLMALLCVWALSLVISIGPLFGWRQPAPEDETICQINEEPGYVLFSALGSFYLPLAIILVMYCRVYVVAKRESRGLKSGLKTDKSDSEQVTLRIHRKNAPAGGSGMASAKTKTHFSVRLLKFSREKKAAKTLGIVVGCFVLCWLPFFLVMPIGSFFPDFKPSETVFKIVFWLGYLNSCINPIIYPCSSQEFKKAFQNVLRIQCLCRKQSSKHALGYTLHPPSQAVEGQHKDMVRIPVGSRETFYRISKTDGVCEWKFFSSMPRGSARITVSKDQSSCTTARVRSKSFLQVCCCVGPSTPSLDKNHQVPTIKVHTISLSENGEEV
Chain of HISTAMINE H1 RECEPTOR (P35367 whole entry): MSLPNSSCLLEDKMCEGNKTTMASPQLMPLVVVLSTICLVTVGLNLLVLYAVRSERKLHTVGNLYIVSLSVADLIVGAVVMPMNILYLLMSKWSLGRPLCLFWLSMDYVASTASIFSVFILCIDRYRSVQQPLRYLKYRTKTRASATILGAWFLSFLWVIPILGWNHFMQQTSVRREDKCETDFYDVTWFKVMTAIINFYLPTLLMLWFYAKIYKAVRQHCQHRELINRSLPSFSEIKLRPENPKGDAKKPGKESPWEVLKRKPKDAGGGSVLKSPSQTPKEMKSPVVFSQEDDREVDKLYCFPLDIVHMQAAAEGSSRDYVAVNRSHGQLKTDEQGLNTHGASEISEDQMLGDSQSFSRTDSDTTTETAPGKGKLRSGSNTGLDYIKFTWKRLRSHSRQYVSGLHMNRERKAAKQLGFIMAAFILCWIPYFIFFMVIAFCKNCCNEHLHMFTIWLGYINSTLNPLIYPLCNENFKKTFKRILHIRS
Chain of UniProt P08913 (P08913 whole entry): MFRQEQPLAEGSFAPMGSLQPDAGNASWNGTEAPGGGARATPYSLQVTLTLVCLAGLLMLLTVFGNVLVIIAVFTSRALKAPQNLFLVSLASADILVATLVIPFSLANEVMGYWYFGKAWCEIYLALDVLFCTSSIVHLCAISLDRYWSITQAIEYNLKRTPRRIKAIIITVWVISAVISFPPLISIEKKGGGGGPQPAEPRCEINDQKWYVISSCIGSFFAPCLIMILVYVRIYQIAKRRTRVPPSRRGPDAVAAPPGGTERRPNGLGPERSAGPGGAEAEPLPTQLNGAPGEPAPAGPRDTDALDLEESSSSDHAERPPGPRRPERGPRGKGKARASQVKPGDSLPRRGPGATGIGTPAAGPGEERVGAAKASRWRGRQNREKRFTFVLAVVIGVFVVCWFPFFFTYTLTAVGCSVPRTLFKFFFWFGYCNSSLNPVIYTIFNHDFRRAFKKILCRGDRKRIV
Chain of UniProt P07550 (P07550 whole entry): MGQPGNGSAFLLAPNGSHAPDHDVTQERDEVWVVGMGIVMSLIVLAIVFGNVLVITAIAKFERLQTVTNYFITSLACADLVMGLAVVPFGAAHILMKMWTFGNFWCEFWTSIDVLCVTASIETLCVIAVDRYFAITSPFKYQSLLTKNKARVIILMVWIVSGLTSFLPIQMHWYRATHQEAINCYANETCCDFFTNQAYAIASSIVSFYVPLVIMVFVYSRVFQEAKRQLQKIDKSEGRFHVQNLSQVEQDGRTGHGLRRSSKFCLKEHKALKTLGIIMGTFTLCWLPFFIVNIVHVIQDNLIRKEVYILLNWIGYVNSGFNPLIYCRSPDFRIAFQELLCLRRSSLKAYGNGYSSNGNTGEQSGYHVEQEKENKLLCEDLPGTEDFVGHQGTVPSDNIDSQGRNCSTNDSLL
Chain of 5HT3 (P46098 24-478): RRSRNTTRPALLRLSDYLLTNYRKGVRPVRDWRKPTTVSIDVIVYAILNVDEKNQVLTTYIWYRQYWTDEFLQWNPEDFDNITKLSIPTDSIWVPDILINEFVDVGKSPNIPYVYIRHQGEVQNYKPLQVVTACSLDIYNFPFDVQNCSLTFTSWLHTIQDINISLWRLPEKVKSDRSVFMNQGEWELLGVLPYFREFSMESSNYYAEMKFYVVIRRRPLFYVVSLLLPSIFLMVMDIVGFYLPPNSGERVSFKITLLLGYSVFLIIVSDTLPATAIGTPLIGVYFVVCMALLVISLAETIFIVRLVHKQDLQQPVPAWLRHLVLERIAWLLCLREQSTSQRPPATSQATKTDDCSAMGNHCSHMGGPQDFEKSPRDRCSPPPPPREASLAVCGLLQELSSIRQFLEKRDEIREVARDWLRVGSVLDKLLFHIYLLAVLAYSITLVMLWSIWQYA
Chain of UniProt P23975 (P23975 whole entry): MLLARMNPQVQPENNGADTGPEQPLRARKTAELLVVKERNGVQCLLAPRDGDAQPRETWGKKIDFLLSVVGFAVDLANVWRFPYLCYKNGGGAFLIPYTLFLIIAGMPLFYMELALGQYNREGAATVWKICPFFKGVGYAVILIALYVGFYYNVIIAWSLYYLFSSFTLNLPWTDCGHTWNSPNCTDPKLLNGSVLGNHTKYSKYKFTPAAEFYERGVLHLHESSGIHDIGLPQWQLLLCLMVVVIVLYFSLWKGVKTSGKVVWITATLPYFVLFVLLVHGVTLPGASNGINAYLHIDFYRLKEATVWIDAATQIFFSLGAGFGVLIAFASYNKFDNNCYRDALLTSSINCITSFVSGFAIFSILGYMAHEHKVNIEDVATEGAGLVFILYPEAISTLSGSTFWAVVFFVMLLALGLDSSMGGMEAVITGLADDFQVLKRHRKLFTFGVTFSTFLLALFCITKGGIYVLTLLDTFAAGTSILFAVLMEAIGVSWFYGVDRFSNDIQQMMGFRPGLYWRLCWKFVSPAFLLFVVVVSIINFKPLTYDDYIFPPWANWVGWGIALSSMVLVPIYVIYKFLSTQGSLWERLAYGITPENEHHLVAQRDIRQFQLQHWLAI
Chain of PPARγ (P37231 whole entry): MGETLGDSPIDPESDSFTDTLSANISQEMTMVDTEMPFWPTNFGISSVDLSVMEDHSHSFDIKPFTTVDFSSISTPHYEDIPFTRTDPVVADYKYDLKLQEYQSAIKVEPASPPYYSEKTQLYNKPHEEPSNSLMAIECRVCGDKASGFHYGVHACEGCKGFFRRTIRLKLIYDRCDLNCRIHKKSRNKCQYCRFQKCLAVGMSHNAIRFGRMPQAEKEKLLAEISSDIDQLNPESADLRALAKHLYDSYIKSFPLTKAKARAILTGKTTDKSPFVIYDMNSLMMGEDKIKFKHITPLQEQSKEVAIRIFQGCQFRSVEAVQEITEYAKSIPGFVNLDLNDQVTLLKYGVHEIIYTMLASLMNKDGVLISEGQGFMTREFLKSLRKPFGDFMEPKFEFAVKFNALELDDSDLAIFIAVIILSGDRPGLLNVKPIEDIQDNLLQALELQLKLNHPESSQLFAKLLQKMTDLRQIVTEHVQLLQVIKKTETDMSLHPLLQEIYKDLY
Chain of UniProt P43088 (P43088 whole entry): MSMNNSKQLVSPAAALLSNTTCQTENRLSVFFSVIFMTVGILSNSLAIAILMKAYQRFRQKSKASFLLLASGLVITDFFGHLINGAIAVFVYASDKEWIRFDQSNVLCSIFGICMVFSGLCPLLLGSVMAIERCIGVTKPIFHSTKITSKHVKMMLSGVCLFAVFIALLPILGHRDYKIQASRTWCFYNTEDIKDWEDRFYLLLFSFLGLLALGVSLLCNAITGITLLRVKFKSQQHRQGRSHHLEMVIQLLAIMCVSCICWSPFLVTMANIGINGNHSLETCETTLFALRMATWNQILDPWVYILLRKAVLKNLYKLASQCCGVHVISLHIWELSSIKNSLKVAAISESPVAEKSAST
Chain of ADENOSINE A3 RECEPTOR (P0DMS8 whole entry): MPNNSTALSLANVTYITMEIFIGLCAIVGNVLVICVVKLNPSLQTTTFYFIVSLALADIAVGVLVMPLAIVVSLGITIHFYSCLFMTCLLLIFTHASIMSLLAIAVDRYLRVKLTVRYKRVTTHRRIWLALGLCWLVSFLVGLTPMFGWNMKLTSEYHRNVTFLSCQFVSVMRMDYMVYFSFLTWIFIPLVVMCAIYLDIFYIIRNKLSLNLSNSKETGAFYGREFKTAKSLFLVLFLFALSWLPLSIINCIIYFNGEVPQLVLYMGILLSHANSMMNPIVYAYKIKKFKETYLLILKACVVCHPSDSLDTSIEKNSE

For `Cc1nnc(-c2ccc(OCCCOc3ccc(CCC(=O)O)c(F)c3)c(F)c2)s1` [Compound 1], the “interaction with the seven pivotal cytochrome P450 isoenzymes” value [1] was “did not echibit any relevant; also recorded: did not exhibit any relevant activity”, the inhibition at 10 µM [2] was -20.6% and the inhibition at 10 µM [3] was -3.3%. The inhibition at 10 µM [4] was -4.7%, the inhibition at 10 µM [5] was 9.4% and the inhibition at 10 µM [6] was 9%. For the same compound, the inhibition at 10 µM [7] was 9.3%, the inhibition at 10 µM [8] was -3.3% and the inhibition at 10 µM [9] was 13.6%. It also gave an inhibition at 10 µM [10] of -3.8%, an inhibition at 10 µM [11] of 2.3% and an inhibition at 10 µM [12] of -7%. It also gave an inhibition at 10 µM [13] of 10.9%, an inhibition at 10 µM [14] of 4.9% and an inhibition at 10 µM [15] of 8.4%. It also gave an inhibition at 10 µM [16] of 4.2%, an inhibition at 10 µM [17] of -3.7% and an inhibition at 10 µM [18] of -3.3%. For the same compound, the inhibition at 10 µM [19] was 95%, the inhibition at 10 µM [20] was 0% and the inhibition at 10 µM [21] was 6.9%. For the same compound, the inhibition at 10 µM [22] was 1.7%, the inhibition at 10 µM [23] was -6.9% and the inhibition at 10 µM [24] was -3.2%. The inhibition at 10 µM [25] was 4% and the inhibition at 10 µM [26] was 10.9%.

For `COc1ccc(Oc2ccc3ncn(CCOc4ccc(CCC(=O)O)cc4)c3c2)cc1` [Compound 2], the “interaction with the seven pivotal cytochrome P450 isoenzymes” value [1] was “did not echibit any relevant; also recorded: did not exhibit any relevant activity”, the inhibition at 10 µM [2] was 22.7% and the inhibition at 10 µM [3] was -8.8%. It also gave an inhibition at 10 µM [4] of 0.3%, an inhibition at 10 µM [5] of -3.6% and an inhibition at 10 µM [6] of 17.1%. The inhibition at 10 µM [7] was -3.2%, the inhibition at 10 µM [8] was -5.7% and the inhibition at 10 µM [9] was -1.8%. The inhibition at 10 µM [10] was -2.1%, the inhibition at 10 µM [11] was -8.3% and the inhibition at 10 µM [12] was -6.7%. It also gave an inhibition at 10 µM [13] of -3.1%, an inhibition at 10 µM [14] of 2.1% and an inhibition at 10 µM [15] of -0.2%. It also gave an inhibition at 10 µM [16] of 6.9%, an inhibition at 10 µM [17] of 0.9% and an inhibition at 10 µM [18] of 0.7%. The inhibition at 10 µM [19] was 89.6%, the inhibition at 10 µM [20] was 4.6% and the inhibition at 10 µM [21] was 6.4%. For the same compound, the inhibition at 10 µM [22] was 2.9%, the inhibition at 10 µM [23] was 6.2% and the inhibition at 10 µM [24] was 4.9%. It also gave an inhibition at 10 µM [25] of 7% and an inhibition at 10 µM [26] of -0.7%.
